Reference: paper PMC9960827, “Cloning and Characterization of Trypanosoma congolense and T. vivax Nucleoside Transporters Reveal the Potential of P1-Type Carriers for the Discovery of Broad-Spectrum Nucleoside-Based Therapeutics against Animal African Trypanosomiasis” (International Journal of Molecular Sciences, 2023)

How the values were obtained:
TcoAT1 [1] = format: cell-based, Trypanosoma congolense
Summary of the method: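 Transporter genes were expressed in an L. mexicana line lacking NT1 and NT2 (SUPKO), and 1 × 10^7 cells in HEPES/bicarbonate buffer pH 7.3 took up radiolabeled permeant through an oil layer, with or without inhibitor. Uptake was stopped with ice-cold unlabeled substrate or by centrifugation, and pellets were counted. IC50 against radiolabeled adenosine was converted to Ki by Cheng–Prusoff using the permeant Km.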

TbNT10 = tested on: TbNT10; set-up: method as in Al-Salabi et al. [40]; settings: called Km values; ref Al-Salabi et al. [40]; cited from earlier work
TvxNT3 = TvxNT3 (Trypanosoma vivax, UniProt F9WV62); assay: cell-based; format: cell-based
TvxNT3, sequence (F9WV62 entry or part of it): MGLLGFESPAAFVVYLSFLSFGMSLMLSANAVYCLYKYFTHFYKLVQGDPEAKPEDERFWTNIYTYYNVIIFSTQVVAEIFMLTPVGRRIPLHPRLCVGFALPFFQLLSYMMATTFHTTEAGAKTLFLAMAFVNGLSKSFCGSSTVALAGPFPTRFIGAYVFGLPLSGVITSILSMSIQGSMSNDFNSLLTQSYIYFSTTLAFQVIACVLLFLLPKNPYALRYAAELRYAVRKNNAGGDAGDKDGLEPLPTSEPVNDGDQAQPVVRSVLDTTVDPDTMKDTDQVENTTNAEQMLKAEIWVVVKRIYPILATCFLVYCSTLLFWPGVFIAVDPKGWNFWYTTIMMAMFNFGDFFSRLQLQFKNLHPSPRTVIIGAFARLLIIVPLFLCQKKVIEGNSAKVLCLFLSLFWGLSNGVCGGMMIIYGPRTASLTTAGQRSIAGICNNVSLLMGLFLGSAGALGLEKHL
From the text: The information for the T. congolense adenosine transporter (TcoAT1) and four putative T. vivax nucleoside transporters was obtained in the TritrypDB (tritrypdb.org/tritrypdb) genome database. Primers were designed to flank each gene upstream of the 5′ end (forward) and downstream of the 3′ end (reverse) as described (primer sequences in Supplementary Table S2). Following amplification from the genomic DNA of T. congolense or T. vivax, DNA for each extracted gene was ligated into the pNUS-HcN expression vector doubly digested with NdeI using the NEBuilder kit according to the manufacturer’s instructions (New England Biolabs). Construct was transformed into competent E. coli cells, and ligation was confirmed by restriction enzyme digestion of isolated plasmid DNA followed by Sanger sequencing (Source BioScience, Nottingham, UK). Confirmed plasmids were then transfected into L. mexicana cell line in which both NT1 and NT2 were doubly knocked out (SUPKO) and derived from L. mexicana Cas9 [64] as described. Clones grown in medium containing 50 μg/mL neomycin (G418) were collected for further confirmation by PCR with genomic DNA using a forward primer of the transporter gene and a reverse primer of the plasmid.
(§1) Uptake assays using radiolabeled trypanocides and/or nucleosides were carried out as described previously. Briefly, parasite cultures were harvested, washed twice in assay buffer (33 mM HEPES, 98 mM NaCl, 4.6 mM KCl, 0.5 mM CaCl2, 0.07 mM MgSO4, 5.8 mM NaH3PO4, 0.03 mM MgCl2, 23 mM NaHCO3, 14 mM D-glucose, pH 7.3), then resuspended and adjusted to a density of 1 × 10^8 cells/mL in assay buffer. The radiolabeled permeant in the presence or absence of different concentrations of potential inhibitors reconstituted in 100 μL assay buffer was deposited on top of 250 μL oil mix in microcentrifuge tubes; 1 × 10^7 parasites in 100 μL assay buffer were added to the tube and incubated for a pre-determined interval. The reaction was stopped by the addition of 1 mL of a high concentration of ice-cold unlabeled substrate in assay buffer (‘stop solution’) and centrifugation, or by immediate centrifugation at […] as appropriate. The microcentrifuge tubes were flash-frozen, and the bottom of each tube containing the cell pellet was cut off and transferred to a scintillation vial. Cell pellets were lysed in 2% SDS, after which scintillation fluid (Scintlogic U, Lablogic) was added, followed by overnight incubation in the dark. Scintillation was measured in a 300SL (Hidex) scintillation counter (Hidex). All the assays were conducted in triplicate and analysis was carried out using Microsoft Excel and GraphPad Prism. All kinetic parameters were obtained on at least 3 separate occasions.
The dose-dependent uptake assay allowed for the affinity of nucleoside analogs to different nucleoside transporters to be determined by measuring the extent to which the analogs compete with and inhibit the uptake of radiolabel adenosine. This allowed for the determination of biochemical parameters such as Km and Vmax through the application of the Michaelis–Menten equation V0 = Vmax([substrate]/([substrate] + Km)). The 50% Inhibitory Concentration (IC50) of the purines and pyrimidines and their analogs was determined from non-linear regression to sigmoid curves with variable slope (Prism 8), and the IC50 of the inhibitor and the Km of the labeled permeant were then used to calculate the inhibition constant (Ki) of the analogs through the Cheng–Prusoff equation: Ki = IC50/(1 + (L/Km)), where L denotes the radiolabel concentration. The calculated Ki was in turn used to determine the Gibbs free energy (ΔG^0) of the inhibitor–transporter interaction using the equation: ΔG^0 = -RTln(Ki), where R represents the gas constant and T symbolizes the absolute temperature in Kelvin [104].

[2] = target: T. congolense adenosine transporter; assay: [3H]-adenosine uptake and its inhibition in T. congolense IL3000 bloodstream forms; format: cell-based, Trypanosoma congolense
Summary of the method: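 Bloodstream-form T. congolense IL3000 (1 × 10^7 cells) in HEPES/bicarbonate buffer pH 7.3 took up [3H]-adenosine over a set interval, with or without inhibitor, ending by ice-cold unlabeled substrate stop or centrifugation through oil. Pellet radioactivity gave IC50 by sigmoid fit; Ki followed by Cheng–Prusoff using adenosine Km.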

[3] = target: T. b. brucei P1 (TbP1/NT2); settings: cited from earlier work
[4] = tested on: L. mexicana expressing TbAQP2; set-up: method as in PMID 24235095; settings: cited from earlier work
L. mexicana Cas9 = assay: Resazurin drug sensitivity assay, LmexCas9; format: cell-based, Leishmania mexicana; settings: Leishmania mexicana, read-out: LmexCas9 EC50
Summary of the method: (§2)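 EC50 values came from fitting data to a variable-slope sigmoid curve. Each value is the mean of at least three independent determinations run on different days.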

T.b.b. B48 = assay: Alamar Blue (resazurin) assay, T. b. brucei B48; format: cell-based, Trypanosoma brucei brucei; settings: Trypanosoma brucei, read-out: T.b.b. B48 EC50
Procedure: (§3) EC50 values were determined by plotting to an equation for a sigmoid curve with variable slope (GraphPad Prism 8). All values were the average of at least three independent determinations on different days.

TcoAT1 [5] = assay: Uptake of [3H]-pentamidine and [3H]-diminazene in SUPKO+TcoAT1 versus SUPKO; format: cell-based, Trypanosoma congolense; settings: 25 nM [3H]-pentamidine or 50 nM [3H]-diminazene, SUPKO+TcoAT1 vs SUPKO
Procedure: as §1, with “All the assays were conducted in triplicate and analysis was carried out using Microsoft Excel and GraphPad Prism. All kinetic parameters were obtained on at least 3 separate occasions.” left out

L. mexicana SUPKO+TcoAT1 = assay: microbe, parasite or virus in culture; format: cell-based, Leishmania mexicana
Summary of the method: as §2

L. mexicana SUPKO = assay: microbe, parasite or virus in culture; format: cell-based, Leishmania mexicana
Summary of the method: as §2

L. mexicana SUPKO+TvxNT3 = assay: microbe, parasite or virus in culture; format: cell-based, Leishmania mexicana
Summary of the method: as §2

T. congolense 6C3 = assay: microbe, parasite or virus in culture; format: cell-based, Trypanosoma congolense
Procedure: as §3

T. congolense IL3000 = assay: Alamar Blue (resazurin) assay, T. congolense IL3000; format: cell-based, Trypanosoma congolense; settings: Trypanosoma congolense; BSF, resazurin; read-out: T. congolense IL3000 EC50
Procedure: as §3

[6] = Resistance Factor relative to SUPKO

In the case of `O=c1[nH]cnc2c1ncn2[C@@H]1O[C@H](CO)[C@@H](O)[C@H]1O` [Inosine], the Ki (TcoAT1 [1]; 0.05 µM [3H]-adenosine, 10 s, IC50 converted to Ki, read-out: Ki on the transport of [3H]-adenosine) is reported as 550 ± 90 nM, the ΔG0 (TcoAT1 [1]; Gibbs free energy of binding, from Km or Ki) is reported as -8.53 kcal/mol and the “δ(ΔG0)” value (TcoAT1 [1]; loss of Gibbs free energy of binding relative to the parent nucleoside) is reported as 0.163 kcal/mol. For the same compound, the Km (TbNT10) was 0.53 µM, the remaining activity at 100 µM (TvxNT3; 100 µM inhibitor, 50 nM [3H]-adenosine, read-out: [3H]-adenosine uptake remaining in presence of inhibitor) was < 25% and the “δ(ΔG0)” value (TvxNT3; difference in ΔG0 relative to the parent purine (adenosine or inosine)) was 1.21 kcal/mol. For the same compound, the Ki ([2]; 0.05 µM [3H]-adenosine, 30 s, IC50 converted to Ki, read-out: Ki on the transport of [3H]-adenosine) was 270 ± 20 nM, the “ΔG0, Gibbs free energy of interaction” value ([2]; calculated from Km or Ki) was -8.96 kcal/mol and the Ki ([3]; T. b. brucei bloodstream forms, read-out: Tbb P1 Ki) was 440 ± 100 nM. The “Tbb P1 ΔG0” value [3] was -8.68 kcal/mol.

In the case of `N=C(N)c1ccc(OCCCCCOc2ccc(C(=N)N)cc2)cc1` [Pentamidine, reference compound], the “sensitization upon expression of TbAQP2” value [4] is listed as 40 fold, the EC50 (L. mexicana Cas9) is listed as 1430 ± 50 nM and the EC50 (T.b.b. B48) is listed as 340 ± 60 nM. For the same compound, the “effect of the expression of TcoAT1 on the uptake of the trypanocide” value (TcoAT1 [5]) was “no effect”, the EC50 (L. mexicana SUPKO+TcoAT1; Leishmania mexicana, read-out: SUPKO+TcoAT1 EC50) was 1730 ± 200 nM and the “SUPKO+TcoAT1 RF (SUPKO)” value (L. mexicana SUPKO+TcoAT1; [6]) was 1.1. For the same compound, the EC50 (L. mexicana SUPKO; Leishmania mexicana, read-out: SUPKO EC50, resazurin, promastigotes) was 1830 ± 290 nM, the “SUPKO RF (Cas9)” value (L. mexicana SUPKO; Resistance Factor = EC50(SUPKO)/EC50(Cas9)) was 1.28 and the EC50 (L. mexicana SUPKO+TvxNT3; Leishmania mexicana, read-out: SUPKO+TvxNT3 EC50) was 2310 ± 180 nM. The “SUPKO+TvxNT3 RF (SUPKO)” value (L. mexicana SUPKO+TvxNT3; [6]) was 0.77, the EC50 (T. congolense 6C3; Trypanosoma congolense, read-out: T. congolense 6C3 EC50) was 440 ± 150 nM and the “T. congolense 6C3 RF” value (T. congolense 6C3; resistance factor = EC50 (test strain)/EC50(control strain)) was 0.79. It also gave an EC50 (T. congolense IL3000) of 550 ± 110 nM.
